Laboratory results reported in article PMC6881293, “Nanomolar-potency ‘co-potentiator’ therapy for cystic fibrosis caused by a defined subset of minimal function CFTR mutants” (Scientific Reports, 2019).
pEC50: −log10 of the molar value. Each block holds one compound with its values, some of them ahead of it.

Columns and labels:
Type in all cases: cell-based
[1] = molecular target: T1, N1303K-CFTR (Homo sapiens, UniProt P13569, N1303K); assay: Short-circuit current in FRT cells expressing N1303K-CFTR; details: N1303K-CFTR FRT cells; for short-circuit current response when added after VX-770: 20 μM forskolin, 5 μM VX-770, then 20 μM compound
T1 construct: expressed in transfected cells
Method: Based on prior studies[10],[11],[20], we hypothesized that distinct binding sites may be required to bind a potentiator and co-potentiator to rescue channel activity of CFTR mutants. We defined the potentiator VX-770 as a Class I compound, and co-potentiator ASP-11 as a Class II compound (Fig. 3A,D). Short-circuit current measurements in N1303K-CFTR-expressing FRT cells confirmed synergy when ASP-11 was added after VX-770 (Fig. 3Bi). […] In each experiment, CFTRinh-172 confirmed that current was from CFTR.
Figure 3 Definition of Class I and II CFTR potentiators. (A) Chemical structures of Class I and II potentiators. (B) Short-circuit current in FRT cells expressing N1303K-CFTR in response to forskolin and indicated potentiators. Concentrations: 20 μM forskolin, 5 μM VX-770, 20 μM ASP-11, 20 μM GLPG1837, 20 μM P2, 20 μM P3, 20 μM P5, 20 μM W1282Xpot-C01, and 10 μM CFTRinh-172. C. Short-circuit current in FRT cells expressing Q1313X-CFTR in response to forskolin and indicated potentiators. Concentrations: as in panel B, and 25 μM apigenin. (D) Summary of relative N1303K-CFTR activation in response to combinations of Class I and Class II potentiators. Mean ± S.E.M., n = 3. TEXT PRINTED IN THE PICTURE: (D) VX-770: N1303K-CFTR: P5: 1% ±1%; N1303K-CFTR: GLPG 1837: 10% ±5%; N1303K-CFTR: ASP-11: 100% ±3%; N1303K-CFTR: apigenin: 100% ±5% | (D) P5: N1303K-CFTR: VX-770: 1% ±1%; N1303K-CFTR: GLPG 1837: 2% ±2%; N1303K-CFTR: ASP-11: 52% ±5%; N1303K-CFTR: apigenin: 56% ±5% | (D) GLPG 1837: N1303K-CFTR: VX-770: 0% ±5%; N1303K-CFTR: P5: 2% ±2%; N1303K-CFTR: ASP-11: 100% ±4%; N1303K-CFTR: apigenin: 98% ±5% | (D) ASP-11: N1303K-CFTR: VX-770: 100% ±3%; N1303K-CFTR: P5: 47% ±4%; N1303K-CFTR: GLPG 1837: 100% ±5%; N1303K-CFTR: apigenin: 7% ±3% | (D) apigenin: N1303K-CFTR: VX-770: 100% ±5%; N1303K-CFTR: P5: 50% ±5%; N1303K-CFTR: GLPG 1837: 100% ±5%; N1303K-CFTR: ASP-11: 5% ±2% DOUBTS OF THE COPYIST ABOUT THIS PICTURE: Panel D is a matrix of pairs of substances (row substance combined with column substance). The picture prints no name for the measure, only % values and a 0%–100% colour scale. / The print in panel D is small, so 3, 5, 6 and 8 are hard to tell apart in these values. / VX-770 / GLPG 1837: ±5% could be ±3% / VX-770 / ASP-11: ±3% could be ±5% / VX-770 / apigenin: ±5% could be ±3% / P5 / ASP-11: 52% ±5%, digits uncertain / P5 / apigenin: 56% could be 58%, and ±5% is uncertain / GLPG 1837 / VX-770: 0% ±5%, error digit uncertain / GLPG 1837 / apigenin: 98% could be 96%, and ±5% is uncertain / ASP-11 / VX-770: ±3% could be ±5% / ASP-11 / GLPG 1837: ±5% could be ±3% / ASP-11 / apigenin: 7% ±3%, error digit uncertain / apigenin / VX-770: ±5% could be ±3% / apigenin / P5: 50% ±5%, digits uncertain / apigenin / GLPG 1837: ±5% could be ±3% / apigenin / ASP-11: 5% ±2%, the 5 is uncertain
(§1) Figures 5C,D show data in N1303K- and Q1313X-expressing FRT cells.
(§2) Short-circuit current was measured on cells cultured on Snapwell clear permeable supports (Corning) as described[10],[11]. Hemichambers were connected to a DVC-1000 voltage clamp (World Precision Instruments Inc., Sarasota, FL) via Ag/AgCl electrodes and 3 M KCl agar bridges for recording of the short-circuit current. For human airway epithelial cells, symmetrical HCO3^−-buffered solutions (in mM: 120 NaCl, 5 KCl, 1 MgCl2, 1 CaCl2, 5 Hepes, 25 NaHCO3, 10 glucose, pH 7.4) for basolateral and apical side were used. For FRT cells, the basolateral membrane was permeabilized with 250 μg/ml amphotericin B, and experiments were done with a chloride gradient using a HCO3^−-buffered solutions (Basolateral (mM): 120 NaCl, 5 KCl, 1 MgCl2, 1 CaCl2, 5 Hepes, 25 NaHCO3, 10 glucose, pH 7.4; apical (mM): 60 NaCl, 60 mM sodium gluconate, 5 KCl, 1 MgCl2, 1 CaCl2, 5 Hepes, 25 NaHCO3, 10 glucose, pH 7.4). All cells were equilibrated with 95% O2, 5% CO2 and maintained at 37 °C during experiments.

[2] = molecular target: T2, Q1313X-CFTR (Homo sapiens, UniProt P13569); assay: Short-circuit current in FRT cells expressing Q1313X-CFTR; details: Q1313X-CFTR FRT cells, 20 μM forskolin; for short-circuit current response when added after VX-770: 5 μM VX-770, 20 μM P2, P3, P5, ASP-11, 25 μM apigenin
T2 construct: expressed in transfected cells
Method: As shown in Fig. 1C and summarized in Fig. 2, ASP-11 acted in synergy with VX-770 to increase chloride current in FRT cells expressing the NBD2 mutations I1234del- and Q1313X-CFTR by ~3–9-fold compared to VX-770. I1234del- and Q1313X-CFTR-expressing cells were also treated with VX-809 for 24 hours (to consider the effect of available CFTR therapeutics) with 2–3-fold greater currents observed.
Studies on FRT cells expressing Q1313X-CFTR produced similar data (Fig. 3C).
as §1, §2

[3] = molecular target: T3, W1282X-CFTR (Homo sapiens, UniProt P13569); assay: Short-circuit current in FRT cells expressing W1282X-CFTR; details: VX-809-corrected W1282X-CFTR-expressing FRT cells; for increase in VX-770 current: forskolin and 5 μM VX-770; for pEC50: in the presence of forskolin and 5 μM VX-770
T3 construct: expressed in transfected cells
Method: Given the utility of co-potentiators as possible CF therapeutics for several minimal function CFTR mutants, a screen was done to identify novel co-potentiator scaffolds. Screening used FRT cells stably expressing W1282X-CFTR and the halide-sensitive EYFP-H148Q/I152L/F46L (YFP) that were treated for 24 hours with 3 μM VX-809 to increase CFTR1281 cell surface expression (Fig. 4A). Just prior to assay cells were treated for 10 min with test compounds at 25 μM together with 20 μM forskolin and 15 nM VX-770. CFTR channel activity was deduced from the initial rate of YFP fluorescence quenching in response to addition of iodide-substituted phosphate buffered saline. Primary screening of 120,000 drug-like synthetic small molecules identified 212 compounds giving channel activity >50% of that produced by forskolin, VX-770 and 20 μM ASP-11 (Fig. 4B). […] Each of these compounds added to VX-809-corrected FRT cells expressing W1282X-CFTR produced little current without VX-770 (Fig. 4E).
Figure 4 Novel co-potentiators identified by high-throughput screening. (A) Assay design. (B) Summary of screening workflow and results. (C) Chemical structures of novel co-potentiators identified by screening. (D) Representative short-circuit current data in FRT cells expressing W1282X-CFTR. Concentrations: 20 μM forskolin (fsk), 5 μM VX-770 (n = 3). (E) Effects of sequential addition of 20 μM forskolin followed by 20 μM of A-01, B-01, C-01 and D-01, and 5 μM of VX-770 in FRT cells expressing W1282X-CFTR. CFTRinh-172 was used at 10 μM in all experiments.
as §2

[4] = molecular target: T3, W1282X-CFTR; assay: Structure-activity testing of analogs in FRT cells expressing W1282X-CFTR
Method: To establish structure-activity relationships, 240 commercially available piperidinepyridoindole analogs and 160 pyrazoloquinoline analogs were tested in FRT cells expressing W1282X-CFTR. In general, the methoxy substituent on the 4-position (R^3) on the pyridoindole ring increased potency (compare A01 vs A534). N-methylation on the pyridoindole ring abolished activity (compare A534 vs A600). For substituent R^1 on the piperidine ring, substituted benzyl gave greatest activity (A061 and A662). Other R^1 substituents, including sulfonamide (A145), alkyl (A764) and carbocyclic (A714), reduced activity. Changing the benzylic carbon from methylene (CH2) to ketone (C=O) abolished activity (A815, A350 and A956).
For R^3, pyridine (D003), benzyl (D035) and substituted methyl-pyrazole (D086) abolished activity. […] The D123 pyrazoloquinoline with R^3 substituted with thiophene-quinoline heterocycle gave the best potency.

[5] = Table 1, 100% Vmax corresponds to 20 μM ASP-11
[6] = Table 1, piperidine-pyridoindole analogs

T2 sequence (P13569 1-1312 limits assumed): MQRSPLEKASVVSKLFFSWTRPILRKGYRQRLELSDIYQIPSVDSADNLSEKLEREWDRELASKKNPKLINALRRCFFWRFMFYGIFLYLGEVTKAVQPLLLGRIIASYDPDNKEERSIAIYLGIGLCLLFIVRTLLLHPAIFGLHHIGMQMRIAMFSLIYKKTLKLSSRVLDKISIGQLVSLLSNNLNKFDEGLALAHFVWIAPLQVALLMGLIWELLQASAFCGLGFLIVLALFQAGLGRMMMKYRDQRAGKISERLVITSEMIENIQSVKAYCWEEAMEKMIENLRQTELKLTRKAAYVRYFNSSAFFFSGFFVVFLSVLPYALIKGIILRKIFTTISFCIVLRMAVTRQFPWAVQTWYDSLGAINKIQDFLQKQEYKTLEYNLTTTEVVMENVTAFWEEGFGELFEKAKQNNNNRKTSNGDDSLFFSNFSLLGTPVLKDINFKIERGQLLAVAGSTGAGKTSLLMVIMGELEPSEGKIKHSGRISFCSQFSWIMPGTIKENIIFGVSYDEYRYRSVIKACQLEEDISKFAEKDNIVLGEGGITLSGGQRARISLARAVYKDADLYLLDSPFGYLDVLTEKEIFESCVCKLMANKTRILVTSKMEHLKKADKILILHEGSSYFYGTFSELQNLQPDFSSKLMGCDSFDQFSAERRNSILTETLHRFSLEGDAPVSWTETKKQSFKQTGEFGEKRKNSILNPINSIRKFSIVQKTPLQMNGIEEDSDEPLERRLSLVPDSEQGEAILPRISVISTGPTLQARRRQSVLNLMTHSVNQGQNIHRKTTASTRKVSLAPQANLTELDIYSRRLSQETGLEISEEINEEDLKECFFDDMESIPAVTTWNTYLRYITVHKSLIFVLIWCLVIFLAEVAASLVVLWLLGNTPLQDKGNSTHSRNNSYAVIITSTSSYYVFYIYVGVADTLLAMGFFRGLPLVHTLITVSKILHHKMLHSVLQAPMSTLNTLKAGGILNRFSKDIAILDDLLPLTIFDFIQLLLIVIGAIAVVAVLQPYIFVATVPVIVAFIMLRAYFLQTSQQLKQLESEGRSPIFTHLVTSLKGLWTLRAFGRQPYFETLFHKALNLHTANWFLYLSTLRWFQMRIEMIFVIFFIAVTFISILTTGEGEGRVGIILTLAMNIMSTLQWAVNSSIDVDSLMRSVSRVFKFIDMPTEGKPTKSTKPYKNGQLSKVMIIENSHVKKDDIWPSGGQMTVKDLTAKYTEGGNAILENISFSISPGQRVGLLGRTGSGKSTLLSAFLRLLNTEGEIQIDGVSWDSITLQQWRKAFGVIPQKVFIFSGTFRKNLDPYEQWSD
T1 sequence (P13569 whole entry N1303K): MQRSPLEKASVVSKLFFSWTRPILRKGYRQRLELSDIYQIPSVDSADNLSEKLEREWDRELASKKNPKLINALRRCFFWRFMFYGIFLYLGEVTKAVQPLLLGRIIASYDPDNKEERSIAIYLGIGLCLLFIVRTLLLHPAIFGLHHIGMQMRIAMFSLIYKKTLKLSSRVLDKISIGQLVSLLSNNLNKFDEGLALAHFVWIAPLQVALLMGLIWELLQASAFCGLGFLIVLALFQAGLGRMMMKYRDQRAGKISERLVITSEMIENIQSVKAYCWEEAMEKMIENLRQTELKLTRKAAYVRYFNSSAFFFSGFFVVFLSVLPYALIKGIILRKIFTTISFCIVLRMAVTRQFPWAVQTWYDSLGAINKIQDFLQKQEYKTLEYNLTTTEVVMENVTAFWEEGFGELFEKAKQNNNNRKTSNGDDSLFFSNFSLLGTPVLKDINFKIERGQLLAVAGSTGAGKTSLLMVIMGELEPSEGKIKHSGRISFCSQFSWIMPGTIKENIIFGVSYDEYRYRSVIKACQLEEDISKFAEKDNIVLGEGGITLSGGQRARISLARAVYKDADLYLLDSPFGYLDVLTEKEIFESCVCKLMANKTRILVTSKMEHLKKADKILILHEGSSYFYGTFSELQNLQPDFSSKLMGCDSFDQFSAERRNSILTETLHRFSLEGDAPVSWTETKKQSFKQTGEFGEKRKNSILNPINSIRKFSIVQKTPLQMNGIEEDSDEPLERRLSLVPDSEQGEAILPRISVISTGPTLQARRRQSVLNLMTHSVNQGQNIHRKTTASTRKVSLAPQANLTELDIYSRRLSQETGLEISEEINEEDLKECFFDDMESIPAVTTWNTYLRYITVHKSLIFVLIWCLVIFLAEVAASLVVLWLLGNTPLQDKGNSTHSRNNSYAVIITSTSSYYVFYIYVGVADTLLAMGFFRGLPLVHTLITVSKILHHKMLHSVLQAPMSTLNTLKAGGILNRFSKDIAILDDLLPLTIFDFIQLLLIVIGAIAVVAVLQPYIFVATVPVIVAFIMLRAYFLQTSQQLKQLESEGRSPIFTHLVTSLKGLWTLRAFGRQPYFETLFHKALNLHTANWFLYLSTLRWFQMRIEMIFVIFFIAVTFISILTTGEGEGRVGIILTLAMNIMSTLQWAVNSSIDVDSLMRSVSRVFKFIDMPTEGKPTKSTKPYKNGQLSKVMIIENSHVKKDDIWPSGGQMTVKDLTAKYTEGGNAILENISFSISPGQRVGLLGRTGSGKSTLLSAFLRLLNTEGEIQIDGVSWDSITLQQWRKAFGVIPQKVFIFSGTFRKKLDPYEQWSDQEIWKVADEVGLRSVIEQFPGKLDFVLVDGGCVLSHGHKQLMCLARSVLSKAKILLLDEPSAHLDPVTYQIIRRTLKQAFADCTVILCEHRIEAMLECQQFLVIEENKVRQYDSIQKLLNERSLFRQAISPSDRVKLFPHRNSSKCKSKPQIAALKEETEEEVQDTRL
T3 sequence (P13569 1-1281 limits assumed): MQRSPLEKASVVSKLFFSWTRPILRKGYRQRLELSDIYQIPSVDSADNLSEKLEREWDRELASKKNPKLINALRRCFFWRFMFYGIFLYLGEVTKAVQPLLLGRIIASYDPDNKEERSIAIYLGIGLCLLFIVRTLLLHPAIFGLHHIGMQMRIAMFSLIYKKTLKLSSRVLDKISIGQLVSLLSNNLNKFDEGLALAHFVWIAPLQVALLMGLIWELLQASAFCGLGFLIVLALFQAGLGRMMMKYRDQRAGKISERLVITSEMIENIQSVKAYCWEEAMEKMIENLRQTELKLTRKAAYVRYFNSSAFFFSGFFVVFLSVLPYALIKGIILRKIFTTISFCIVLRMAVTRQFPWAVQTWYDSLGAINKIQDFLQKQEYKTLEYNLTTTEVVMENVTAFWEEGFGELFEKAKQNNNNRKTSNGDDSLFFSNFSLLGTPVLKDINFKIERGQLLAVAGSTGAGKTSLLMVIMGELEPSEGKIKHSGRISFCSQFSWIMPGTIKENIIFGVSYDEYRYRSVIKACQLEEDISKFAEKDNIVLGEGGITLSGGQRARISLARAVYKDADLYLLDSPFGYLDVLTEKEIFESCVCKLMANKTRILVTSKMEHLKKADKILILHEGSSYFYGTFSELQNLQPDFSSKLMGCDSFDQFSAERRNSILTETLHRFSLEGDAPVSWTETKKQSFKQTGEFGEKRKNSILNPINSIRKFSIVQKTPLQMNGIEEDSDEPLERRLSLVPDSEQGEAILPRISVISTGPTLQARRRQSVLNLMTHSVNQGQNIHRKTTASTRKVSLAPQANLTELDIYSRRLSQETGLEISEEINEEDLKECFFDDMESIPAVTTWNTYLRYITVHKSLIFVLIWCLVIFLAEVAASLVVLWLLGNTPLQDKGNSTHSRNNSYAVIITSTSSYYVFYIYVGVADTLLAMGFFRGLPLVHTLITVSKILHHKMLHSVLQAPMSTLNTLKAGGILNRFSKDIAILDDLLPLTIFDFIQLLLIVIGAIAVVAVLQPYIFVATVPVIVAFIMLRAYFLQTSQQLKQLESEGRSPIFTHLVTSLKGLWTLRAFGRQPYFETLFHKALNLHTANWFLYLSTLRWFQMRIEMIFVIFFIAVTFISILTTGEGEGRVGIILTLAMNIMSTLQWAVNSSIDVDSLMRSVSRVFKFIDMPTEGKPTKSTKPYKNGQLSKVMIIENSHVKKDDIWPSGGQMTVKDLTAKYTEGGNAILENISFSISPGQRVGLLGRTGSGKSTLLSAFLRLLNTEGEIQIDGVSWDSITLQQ

SMILES: NC(=O)c1c(NC(=O)c2ccccc2Cl)sc2c1CCCC2 [Compound P5]
short-circuit current response when added after VX-770 [1]: did not further increase current
short-circuit current response when added after VX-770 [2]: did not elevate current

increase in VX-770 current [3]: ~ 6 fold
pEC50 [3]: 5.10
SMILES: CCCS(=O)(=O)N1CCCc2ccc(NS(=O)(=O)c3cccs3)cc21 [CP-C01]

short-circuit current response when added after VX-770 [1]: did not further increase current
short-circuit current response when added after VX-770 [2]: did not elevate current
SMILES: CC(C)c1ccc(NC(=O)C(c2ccccc2)N(C)C(=O)Cc2c[nH]c3ccccc23)cc1 (stereo not drawn) [Compound P2]

SMILES: c1ccc(CN2CCC3(CC2)NCCc2c3[nH]c3ccccc23)cc1 [Compound A357]
Relative Vmax (%) [4, 5]: 31%
pEC50 [4, 6]: 4.80

activation by two Class II potentiators added together ([1]; 20 μM W1282Xpot-C01 and 20 μM ASP-11, no Class I potentiator): little activation
short-circuit current response when added after VX-770 [1]: activated N1303K-CFTR
SMILES: Cc1cc(C)cc(N(Cc2ccc(Cl)cc2)S(=O)(=O)c2cccn3c(C)nnc23)c1 [W1282Xpot-C01]

SMILES: COc1ccc2cc3c(N)nn(C(=O)c4ccccc4Cl)c3nc2c1 [Compound D001]
increase in VX-770 current [3]: ~ 6 fold
pEC50 [3]: 4.82
Relative Vmax (%) ([4]; Table 2, 100% Vmax corresponds to 20 μM ASP-11): 90%
pEC50 ([4]; Table 2, pyrazoloquinoline analogs): 4.82

increase in VX-770 current [3]: ~ 6 fold
pEC50 [3]: 5.00
Relative Vmax (%) [4, 5]: 100%
pEC50 [4, 6]: 5.00
SMILES: COc1cccc(CN2CCC3(CC2)NCCc2c3[nH]c3ccc(OC)cc23)c1 [Compound A01]

SMILES: COc1ccc2[nH]c3c(c2c1)CCNC31CCN(C)CC1 [Compound A764]
Relative Vmax (%) [4, 5]: 6%
pEC50 [4, 6]: < 4.52

SMILES: COc1ccc2[nH]c3c(c2c1)CCNC31CCN(C2CCCCC2)CC1 [Compound A714]
Relative Vmax (%) [4, 5]: 18%
pEC50 [4, 6]: < 4.52

SMILES: COc1ccc2[nH]c3c(c2c1)CCNC31CCN(S(C)(=O)=O)CC1 [Compound A145]
Relative Vmax (%) [4, 5]: 7%
pEC50 [4, 6]: < 4.52

SMILES: COc1cccc(CN2CCC3(CC2)NCCc2c3[nH]c3ccccc23)c1 [Compound A534]
Relative Vmax (%) [4, 5]: 24%
pEC50 [4, 6]: 4.89

increase in VX-770 current [3]: ~ 6 fold
pEC50 [3]: 5.30
SMILES: O=C(CN1C(=O)CC(c2cccs2)=Nc2ccccc21)NCc1ccc(Cl)cc1 [CP-B01]

short-circuit current response when added after VX-770 [1]: did not further increase current
short-circuit current response when added after VX-770 [2]: did not elevate current
SMILES: CCN(c1ccccc1)S(=O)(=O)c1ccc2[nH]cc(C(=O)NCc3ccccc3OC)c(=O)c2c1 [Compound P3]

SMILES: COc1cccc(CN2CCC3(CC2)c2[nH]c4ccccc4c2CCN3C)c1 [Compound A600]
Relative Vmax (%) [4, 5]: 4%
pEC50 [4, 6]: < 4.52

short-circuit current response when added after VX-770 [2]: showed synergy
short-circuit current response when added after GLPG1837 ([2]; 20 μM GLPG1837): showed synergy
SMILES: O=c1cc(-c2ccc(O)cc2)oc2cc(O)cc(O)c12 [apigenin]

SMILES: COc1ccc2[nH]c3c(c2c1)CCNC31CCN(Cc2ccc(F)c(F)c2)CC1 [Compound A662]
Relative Vmax (%) [4, 5]: 100%
pEC50 [4, 6]: 5.59
